Drawing on US9889122B2, “Positive allosteric modulators of nicotinic acetylcholine receptor” (H. Lundbeck A/S, priority 2011, dated 2018), this text covers EC50 and melting point for 7 molecules.

Data set [1] has as its target T1, human α7 receptor (Homo sapiens, UniProt P36544).
T1 construct: host or cells: rat GH4C1 cell line
Description: α7 NNR flux assay (FDSS Ca assay, Calcium-4 dye, positive allosteric modulation of acetylcholine response). In kind it is cell-based. Particulars: human α7 receptor stably expressed in rat GH4C1 cell line; acetylcholine 20 μM (~EC100); % modulation relative to reference PNU-120596 set to 100%. As for the experimental part:
The nicotinic acetylcholine receptor α7 is a calcium-permeable ion channel, whose activity can be measured by over expression in mammalian cells or oocytes in this version of the assay, the human α7 receptor is stably expressed in the rat GH4C1 cell line. The assay was used to identify positive allosteric modulators (PAMs) of the α7 receptor. Activation of the channel was measured by loading cells with the calcium-sensitive fluorescent dye Calcium-4 (Assay kit from Molecular Devices), and then measuring real-time changes in fluorescence upon treatment with test compounds.
The cell line ChanClone GH4C1-nAChRalpha7 from Genionics was seeded from frozen stock in 384-well plates in culture media 2-3 days before experiment to form an approximately 80% confluent layer on the day of experiment.
Two or three days before the experiment the cells were seeded in 384 well plates from Greiner bio-one (781946, CELLCOAT, Poly-D-Lysine, black, μClear).
The cells were seeded in 384 well plates with 30 μL/well (30000 cells/well) while stirring the cell suspension or otherwise preventing the cells from precipitating.
The loading buffer was 5% v/v Calcium-4 Kit and 2.5 mM Probenecid in assay buffer.
Culture media were removed from the cell plates and 20 μL loading buffer was added in each well. The cell plates were placed in trays and incubated 90 minutes in the incubator (37° C.). Thereafter the plates were incubated 30 minutes at room temperature, still protected from light.
The assay buffer was HBSS with 20 mM HEPES, pH 7.4 and 3 mM CaCl2.
200 nL 10 mM compound solution in DMSO was diluted in 50 μL assay buffer. The final test concentrations in the cell plates were 20-10-5-2.5-1:25-0.625-0.312-0.156-0.078-0.039 μM. Assay buffer and 3 μM PNU-120596 were used for control.
The agonist acetylcholine was added to a final concentration of 20 μM (˜EC100).
In the FDSS7000 the Ex480-Em540 was measured with 1 second intervals. The baseline was made of 5 frames before addition of test compounds, and 95 frames more were made before addition of acetylcholine. The measurement stopped 30 frames after the 2nd addition. Raw data for each well were collected as “the maximum fluorescence count” in the interval 100-131 seconds and as “the average fluorescence count” in the interval 96-100 seconds. The positive allosteric modulation in the 2nd addition was the enhancement of agonist response with test compound compared to agonist alone.
Results were calculated as % modulation of test compound compared to the reference PNU-120596 set to 100%.

T1 sequence (P36544 23-502): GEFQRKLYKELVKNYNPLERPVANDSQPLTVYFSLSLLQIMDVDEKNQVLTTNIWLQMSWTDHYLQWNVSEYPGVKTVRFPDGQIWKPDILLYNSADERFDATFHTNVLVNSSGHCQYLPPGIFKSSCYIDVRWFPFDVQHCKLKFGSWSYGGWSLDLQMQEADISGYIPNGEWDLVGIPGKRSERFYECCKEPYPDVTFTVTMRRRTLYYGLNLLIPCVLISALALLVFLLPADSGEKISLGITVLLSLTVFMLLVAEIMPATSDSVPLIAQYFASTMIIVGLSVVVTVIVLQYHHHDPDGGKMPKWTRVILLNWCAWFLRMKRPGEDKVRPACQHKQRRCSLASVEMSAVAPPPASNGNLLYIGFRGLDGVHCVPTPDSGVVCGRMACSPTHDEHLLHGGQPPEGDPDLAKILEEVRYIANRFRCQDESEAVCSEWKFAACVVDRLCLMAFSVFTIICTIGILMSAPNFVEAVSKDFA

By EC50 is commonly meant the concentration at which the effect is half-maximal. As a reminder, the melting point is the temperature, or range, at which the solid turns liquid. Turning to `C[C@H](NC(=O)[C@H]1C[C@@H]1c1ccccc1)c1ccc(OCC#N)nc1` [Compound 20, (1S,2S)-2-Phenyl-cyclopropane carboxylic acid [(S)-1-(6-cyanomethoxy-pyridin-3-yl)-ethyl]-amide], the melting point was in the range of 163 to 165 °C. For the same molecule, the concentration for a half-maximal effect (EC50) in data set [1] worked out at 2000 nM. The like results for `C[C@H](NC(=O)[C@H]1C[C@@H]1c1ccccc1)c1ccc(OC2COC2)nc1` [Compound 19, (1S,2S)-2-Phenyl-cyclopropanecarboxylic acid {(S)-1-[6-(oxetan-3-yloxy)-pyridin-3-yl]-ethyl}-amide] were, in that order, 151 to 153 °C and 2400 nM. With `C[C@H](NC(=O)[C@H]1C[C@@H]1c1ccccc1)c1ccc(O[C@@H]2CCOC2)nc1` [Compound 14, (1S,2S)-2-Phenyl-cyclopropanecarboxylic acid [(S)-1-{6-[(R)-(tetrahydro-furan-3-yl)oxy]-pyridin-3-yl]-ethyl}-amide], the 50% effective concentration (EC50) in data set [1] was found to be 1600 nM. On the same count and under the same terms, in the case of `O=C(N[C@@H](CO)c1ccc(OC2CCC2)nc1)[C@H]1C[C@@H]1c1ccc(F)cc1` [Compound 42, (1S,2S)-2-(4-Fluoro-phenyl)-cyclopropanecarboxylic acid [(R)-1-(6-cyclobutoxy-pyridin-3-yl)-2-hydroxy-ethyl]-amide] it was 790 nM; in that of `CCOc1cc([C@H](C)NC(=O)[C@H]2C[C@@H]2c2ccccc2)ccn1` [Compound 12, (1S,2S)-2-Phenyl-cyclopropanecarboxylic acid [(S)-1-(2-ethoxy-pyridin-4-yl)-ethyl]-amide], 1200 nM; in that of `COC[C@H](NC(=O)[C@H]1C[C@@H]1c1ccccc1)c1ccc(O[C@@H]2CCOC2)nc1` [Compound 47, (1S,2S)—N-[(1R)-2-methoxy-1-[6-[(3R)-tetrahydrofuran-3-yl]oxy-3-pyridyl]-ethyl]-2-phenyl-cyclopropanecarboxamide], 1000 nM. Still for that read-out and setting: in the case of `Cc1ccc([C@H](C)NC(=O)[C@H]2C[C@@H]2c2ccccc2)nc1` [Compound 2, (1S,2S)-2-Phenyl-cyclopropanecarboxylic acid [(S)-1-(5-methyl-pyridin-2-yl)-ethyl]-amide] it was 5600 nM.
